# In ChEMBL document CHEMBL1201862, “PubChem BioAssay data set” (2004):
# Structures can show the parent of a compound that is named as a salt. Calls of active or inactive are those of the source. Rule as the data show it, for most assays here: actives have a measured EC50 and inactives only a lower limit.
# Assays:
# [1] = molecular target: T1, Heat shock factor protein 1 (Mus musculus, UniProt P38532); assay: HSF1 potentiators in luciferase reporter cells, confirmation, cell-based, NIH3T3, luminescence, dose retest (AID 435004); format: functional;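 also: stress induced by proteasome inhibitor MG132 added 30 min after compound; luciferase reporter driven by HSF1 response element in NIH3T3 cells; actives raise luminescence as potentiators of the MG132 stress response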
# T1 sequence (P38532 whole entry): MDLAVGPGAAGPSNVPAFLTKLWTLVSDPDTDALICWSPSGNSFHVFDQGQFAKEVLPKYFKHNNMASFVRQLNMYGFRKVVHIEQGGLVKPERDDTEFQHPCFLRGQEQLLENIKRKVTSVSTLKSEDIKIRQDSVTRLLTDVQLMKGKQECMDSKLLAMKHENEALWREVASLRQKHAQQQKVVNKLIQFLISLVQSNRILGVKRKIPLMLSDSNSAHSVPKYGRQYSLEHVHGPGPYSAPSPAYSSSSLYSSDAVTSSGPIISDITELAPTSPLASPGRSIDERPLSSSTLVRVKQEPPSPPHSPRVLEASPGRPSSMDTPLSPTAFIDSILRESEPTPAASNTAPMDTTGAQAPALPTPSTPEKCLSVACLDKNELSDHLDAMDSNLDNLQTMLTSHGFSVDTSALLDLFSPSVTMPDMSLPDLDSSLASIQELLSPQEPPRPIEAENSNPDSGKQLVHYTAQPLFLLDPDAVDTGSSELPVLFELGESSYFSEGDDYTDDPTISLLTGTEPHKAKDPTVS
# [2] = molecular target: T2, Corticotropin-releasing factor receptor 2/Corticotropin-releasing factor-binding protein (Homo sapiens, UniProt P24387+Q13324); assay: activators of CRF receptor 2 with binding protein – uHTS hits, confirmation (AID 602473); format: functional; conditions: read-out: EC50_Mean
# T2 sequence (Q13324 whole entry): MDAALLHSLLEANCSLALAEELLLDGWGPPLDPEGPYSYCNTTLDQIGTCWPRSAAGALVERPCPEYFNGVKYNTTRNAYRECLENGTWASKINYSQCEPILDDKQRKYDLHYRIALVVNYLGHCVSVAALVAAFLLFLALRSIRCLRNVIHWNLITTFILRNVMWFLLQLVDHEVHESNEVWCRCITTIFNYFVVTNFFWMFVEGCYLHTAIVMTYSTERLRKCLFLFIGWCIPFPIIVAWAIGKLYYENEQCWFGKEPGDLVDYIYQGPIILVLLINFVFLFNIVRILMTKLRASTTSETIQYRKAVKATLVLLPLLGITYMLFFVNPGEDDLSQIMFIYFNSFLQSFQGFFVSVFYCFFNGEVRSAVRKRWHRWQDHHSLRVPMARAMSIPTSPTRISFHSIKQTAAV
# T2 sequence (P24387 whole entry): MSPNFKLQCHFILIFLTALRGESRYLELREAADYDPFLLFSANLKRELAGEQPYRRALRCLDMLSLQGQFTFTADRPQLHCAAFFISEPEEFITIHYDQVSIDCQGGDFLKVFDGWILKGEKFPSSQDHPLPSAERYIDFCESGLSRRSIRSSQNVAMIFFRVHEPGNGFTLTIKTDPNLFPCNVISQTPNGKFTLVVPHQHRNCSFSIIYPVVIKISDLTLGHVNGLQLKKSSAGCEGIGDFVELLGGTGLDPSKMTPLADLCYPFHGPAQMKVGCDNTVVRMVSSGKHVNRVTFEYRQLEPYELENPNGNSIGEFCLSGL
# [3] = molecular target: T3, RNA-binding protein pos-1 (Caenorhabditis elegans, UniProt G5EF15); assay: inhibitors of POS-1/mex-3 RNA binding, dose response, biochemical, fluorescence polarization (AID 1964);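 also: purified POS-1 fused to maltose binding protein made in E. coli; potency of compounds blocking POS-1 binding to fluorescent RNA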
# T3 sequence (G5EF15 whole entry): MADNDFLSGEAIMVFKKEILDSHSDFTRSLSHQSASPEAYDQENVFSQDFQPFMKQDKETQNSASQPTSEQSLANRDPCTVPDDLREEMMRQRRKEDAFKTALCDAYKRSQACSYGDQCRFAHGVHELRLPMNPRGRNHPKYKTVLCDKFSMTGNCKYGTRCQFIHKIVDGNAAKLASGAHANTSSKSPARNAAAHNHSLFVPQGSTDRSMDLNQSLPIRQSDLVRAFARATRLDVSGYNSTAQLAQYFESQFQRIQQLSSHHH
# cells = format: functional
# [4] = Luminescence Cell-Based Dose Retest to Confirm Inhibitors of Cancer Stem Cells. [Related pubchem assays (depositor defined):AID2717, AID2721]; format: functional; conditions: Homo sapiens
# [5] = microbe, parasite or virus in culture; format: functional; conditions: Mycobacterium tuberculosis
# [6] = Luminescence Cell-Based Dose Confirmation HTS to Identify Activators of 5'UTR Stem-Loop Driven Alpha-Synuclein mRNA Translation in H4 Neuroglioblastoma Cells. [Related pubchem assays: 1829 (Project Summary), 1814 (Primary HTS)]; format: functional
# [7] = Luminescence Cell-Based Dose Response HTS to Identify Activators of Luciferase Translation or Activity in H4 […] Cells. [Related pubchem assays: 1829 (Project Summary), 1814 (Primary HTS)]; format: functional
# H4 = assay: Luminescence Cell-Based Dose Response HTS to Identify Activators of 5'UTR Stem-Loop Driven Prion Protein mRNA Translation in H4 Neuroglioblastoma Cells. [Related pubchem assays: 1829 (Project Summary), 1814 (Primary HTS)]; format: functional; conditions: Homo sapiens
# [8] = Luminescence Cell-Based Dose Response HTS to Identify Inhibitors of 5'UTR Stem-Loop Driven Prion Protein mRNA Translation in H4 Neuroglioblastoma Cells. [Related pubchem assays: 1827 (Project Summary), 1813 (Primary HTS)]; format: functional
# [9] = molecular target: Luciferin 4-monooxygenase (Photinus pyralis, UniProt P08659); assay: firefly luciferase enzyme inhibitors, dose response, biochemical, luminescence (AID 1891)
# Sequence of Luciferin 4-monooxygenase (P08659 whole entry): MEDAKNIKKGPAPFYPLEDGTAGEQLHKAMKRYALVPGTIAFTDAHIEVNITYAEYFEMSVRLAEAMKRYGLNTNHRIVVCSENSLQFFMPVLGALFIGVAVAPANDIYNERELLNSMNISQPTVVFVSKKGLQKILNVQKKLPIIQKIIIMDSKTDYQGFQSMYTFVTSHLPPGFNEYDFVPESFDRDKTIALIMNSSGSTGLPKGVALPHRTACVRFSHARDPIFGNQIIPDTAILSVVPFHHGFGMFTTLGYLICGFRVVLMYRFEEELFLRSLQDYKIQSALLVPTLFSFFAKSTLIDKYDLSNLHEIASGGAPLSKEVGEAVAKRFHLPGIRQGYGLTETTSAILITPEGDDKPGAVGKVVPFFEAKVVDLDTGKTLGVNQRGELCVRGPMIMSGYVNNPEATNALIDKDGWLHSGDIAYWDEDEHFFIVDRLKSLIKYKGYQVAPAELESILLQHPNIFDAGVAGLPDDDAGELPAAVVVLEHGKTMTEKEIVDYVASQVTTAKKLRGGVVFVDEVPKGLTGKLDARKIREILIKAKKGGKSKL
# [10] = HEp-2 cell cytotoxicity, dose response, cytotoxicity control for RSV inhibitor project, HTS (AID 2410); format: functional; conditions: human respiratory syncytial virus
# [11] = Luminescence Cell-Based Dose Confirmation HTS to Identify Inhibitors of Platelet Dense Granule Release. [Related pubchem assays: 1663 (Primary HTS), 1678 (Summary of Project)]; format: functional
# [12] = inhibitors of SNCA 5'UTR-driven reporter translation, confirmation, H4 neuroglioma cells, luminescence (AID 1988); format: functional, cell-based
# INS1 = assay: beta cell apoptosis inhibitors, cytokine rescue, dose response, luminescence, retest (AID 449756); format: functional, cell-based; conditions: Rattus norvegicus;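 also: cell death triggered by IL-1 beta plus TNF-alpha plus IFN-gamma mixture; protective hits raise ATP signal compared with cytokine alone wells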
# [13] = growth suppression of PTEN-null colon cells, dose response, cell-based, HCT116 PTEN knockout (AID 1047); format: functional;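 also: HCT116 colon tumor cells with PTEN knocked out; cells exposed to compound for 60 hours before readout; potency for loss of cell viability measured by luminescence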
# [14] = growth suppression of beta-catenin-knockout colon cells, dose response, cell-based, HCT116, human colon tumor (AID 1045); format: functional;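 also: HCT116 colon tumor cells with beta catenin knocked out; cells exposed to compound for 60 hours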
# [15] = inhibitors of firefly luciferase expression or activity, dose response, H4 neuroglioma cells, luminescence (AID 1990); format: functional, cell-based
# Streptococcus = assay: Group A Streptococcus viability loss, dose response, counter-screen for streptokinase expression inhibitor project, luminescence, BacTiterGlo (AID 1915); format: functional, organism-based;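 also: potency for reduction of bacterial viability or growth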
# [16] = system: Streptococcus sp. 'group A'; assay: growth inhibition of control SK(-) GAS strain, dose response, counter-screen for streptokinase expression inhibitor project, luminescence, kanamycin, BacTiterGlo, confirmation (AID 1900); format: functional, organism-based
compound,measurement,setting,value
CCc1cc(C(c2ccccc2OC)N2CCOCC2)c(NC(=O)c2ccccc2)s1 (stereo not drawn),EC50,[1],7.34 µM (active)
COc1cc(S(=O)(=O)Nc2ccc(C)cc2)ccc1N/C=C1\C(=O)N(C)C(=O)C(C#N)=C1C,EC50,[2],> 53 µM (inactive)
same,EC50,[3],2.83 µM (active)
CC(C)Cc1cc(C(=O)Nc2ccc(F)cc2F)no1,IC50,cells,12 µM (active)
CN(Cc1ccco1)c1ncnc2ccc(-c3ccc4c(ccn4C)c3)cc12,AC50,[4],0.499 µM (active)
same,CC50,[5],15.4 µM (active)
O=C(O)c1cccc(S(=O)(=O)N2CCC(n3nnc4cc(C(F)(F)F)ccc43)CC2)c1,EC50,[1],> 260 µM (inactive)
CSC1=NC(/C=C/c2ccc(Cl)cc2)=CC(C)(C)N1,EC50,[6],14.3 µM (active)
same,CC50,[5],11.1 µM (active)
same,EC50,[7],> 120 µM (not active)
same,EC50,H4,> 120 µM (not active)
CCOc1ccccc1C(=O)Nc1cnc(O)nc1O,EC50,[8],> 120 µM (not active)
same,EC50,[9],> 112 µM (not active)
same,CC50,[10],> 50 µM (active)
same,EC50,[11],0.125 µM (active)
same,EC50,[12],> 120 µM (not active)
C=CCN(C(=O)CCC(=O)O)C1CC(=O)N(c2ccc(OC)cc2)C1=O (stereo not drawn),EC50,[9],> 112 µM (not active)
same,EC50,[11],> 112 µM (not active)
COc1ccc(C(=O)C2CCCN(Cc3ccc(C)s3)C2)c(OC)c1 (stereo not drawn),EC50,[1],> 260 µM (inactive)
CC(/C=C/c1cccc([N+](=O)[O-])c1)=N\NC(=O)c1ccncc1,IC50,cells,0.94 µM (active)
COc1cc(SC#N)ccc1/N=C/c1c(C)[nH]n(-c2ccc(C)c(C)c2)c1=O,AC50,[4],1.41 µM (active)
same,AC50,INS1,4.24 µM (active)
same,EC50,[13],8.81 µM (active)
same,EC50,[14],8.18 µM (active)
COc1ccc(C2NC(=O)CCC2[N+](=O)[O-])c(OC)c1 (stereo not drawn),EC50,[1],> 260 µM (inactive)
Cc1cc(/C=C2\C(=O)NC(=O)N(c3ccc(Br)cc3)C2=O)c(C)n1C,EC50,[3],59.7 µM (active)
COc1cccc(-n2c(N)c(C(=O)Nc3c(C)n(C)n(-c4ccccc4)c3=O)c3nc4ccccc4nc32)c1,EC50,[9],> 112 µM (not active)
same,EC50,[11],> 112 µM (not active)
CCc1cc2c(=O)c(-c3cnn(-c4ccccc4)c3)c(C)oc2cc1OCC(=O)Nc1ccc(F)c(F)c1,EC50,[13],4.93 µM (active)
same,EC50,[14],4.88 µM (active)
NC(=O)COc1ccccc1,EC50,[1],> 260 µM (inactive)
CCn1nnc(NC(=O)c2ccc(-c3ccc(Cl)cc3)o2)n1,IC50,cells,> 50 µM (active)
COC(=O)CC1C(=O)NCCN1C(=O)c1ccc(S(=O)(=O)N2CCOCC2)cc1 (stereo not drawn),EC50,[1],> 260 µM (inactive)
CC(C)(C)OC(=O)NCCCCCc1nnc(SCc2ccc(F)cc2)o1,CC50,[5],> 40 µM (active)
COc1cc2[nH]c(=O)n(CCCCCC(=O)N3CC=C(c4ccccc4)CC3)c(=O)c2cc1OC,EC50,[13],21.9 µM (active)
same,EC50,[14],27.9 µM (active)
Cc1ccccc1-n1c(=O)cc(N2CCN(C(=O)c3ccco3)CC2)[nH]c1=O,EC50,[9],> 112 µM (not active)
same,EC50,[11],> 112 µM (not active)
CCO[C@H]1OC(C(=O)NCc2nc3ccccc3[nH]2)=C[C@@H](c2csc3ccccc23)[C@@H]1CCCO,CC50,[5],> 40 µM (active)
O=C(CCNC(=O)C1CCN(S(=O)(=O)c2ccc(F)cc2)CC1)NCc1ccc(Cl)cc1,EC50,[9],> 112 µM (not active)
same,EC50,[11],> 112 µM (not active)
O=C(N/N=C/C=C/c1cccc([N+](=O)[O-])c1)c1ccncc1,IC50,cells,34.9 µM (active)
Nc1cccc(-c2nc3ccccc3s2)c1,EC50,[9],3.81 µM (active)
same,EC50,[11],7.77 µM (active)
CN(C)CCCN1c2ccccc2CCc2ccc(Cl)cc21 [CLOMIPRAMINE HYDROCHLORIDE],EC50,[13],9.89 µM (active)
same,EC50,[14],10.3 µM (active)
Nc1nnc(SCc2c(F)cccc2Cl)s1,EC50,[1],> 260 µM (inactive)
Nc1ccc2cc(Br)ccc2c1,IC50,cells,25.7 µM (active)
Cc1cccc(OCC(O)CN2CCN(S(=O)(=O)c3ccc(C)cc3C)CC2)c1 (stereo not drawn),EC50,[8],> 120 µM (not active)
same,EC50,[15],> 120 µM (not active)
same,EC50,[12],15.9 µM (active)
Cc1c(N=N/C(C#N)=C(\O)c2ccc(Cl)cc2)c(=O)n(-c2ccccc2)n1C,EC50,[8],9.48 µM (active)
same,EC50,Streptococcus,9.3 µM (active)
same,AC50,INS1,2.08 µM (active)
same,EC50,[15],9.5 µM (active)
same,EC50,[12],8.7 µM (active)
same,EC50,[16],0.528 µM (active)
O=S(=O)(NCCc1cn2ccccc2n1)c1ccc2c(c1)CCCC2,EC50,[9],> 112 µM (not active)
same,EC50,[11],> 112 µM (not active)
CCC(=O)Oc1ccc(C(=O)Nc2ccc3c(c2)C(=O)N(C2CCCCC2)C3=O)cc1,CC50,[5],39.9 µM (active)
CCC(=O)NCCc1nc2ccccc2n1Cc1ccccc1,EC50,[9],> 112 µM (not active)
same,EC50,[11],> 112 µM (not active)
Cc1cc2oc(=O)cc(CSc3nc(N)cc(N)n3)c2cc1C,EC50,[1],> 260 µM (inactive)
COCCN(Cc1cc2cc3c(cc2n2nnnc12)OCO3)C(=O)c1ccccc1F,EC50,[8],> 120 µM (not active)
same,EC50,[15],> 120 µM (not active)
same,EC50,[12],> 120 µM (not active)
O=C(Nn1cnnc1)c1ccccc1CCc1ccccc1,EC50,[9],> 112 µM (not active)
same,EC50,[11],> 112 µM (not active)
